Results published in ChEMBL document CHEMBL5096168, “An insight on medicinal aspects of novel HIV-1 capsid protein inhibitors” (Eur J Med Chem, 2021).

Tests used:
[1] = test system: Human immunodeficiency virus 1; experiment: Antiviral activity against HIV 1 NL4-3 infected in human MT2 cells assessed as inhibition of replication by XTT assay; format: functional, organism-based; details: Human immunodeficiency virus 1, NL4-3, MT2
[2] = test system: Human immunodeficiency virus 1; experiment: Antiviral activity against recombinant HIV 1 expressing luciferase and envelope glycoprotein of HIV-1 YU-2 infected in Cf2Th-CCR5 cells assessed as inhibition of viral infection by measuring luciferase activity; format: functional, organism-based; details: Human immunodeficiency virus 1, Cf2Th-CCR5
[3] = test system: Human immunodeficiency virus 1; experiment: Antiviral activity against HIV 1 NL4-3 infected in human C8166 cells expressing LTR-luciferase reporter gene assessed as inhibition of viral replication pretreated with virus for 1.5 hrs followed by compound addition and measured after 3 days; format: functional, organism-based; details: Human immunodeficiency virus 1, NL4-3, C8166
[4] = Modulation of capsid disassembly in HIV 1 NL4-3 infected in human C8166 cells expressing LTR-luciferase reporter gene assessed as inhibition of viral protein disassembly; format: functional, cell-based; details: Human immunodeficiency virus 1, NL4-3, C8166
[5] = test system: Human immunodeficiency virus 1; experiment: Antiviral activity against HIV 1 infected in human SUP-T1 cells assessed as inhibition of viral replication by measuring luciferase activity after 72 hrs by steady glo reagent based luminescence assay; format: functional, organism-based; details: Human immunodeficiency virus 1, SUP-T1, 72 h
[6] = test system: Human immunodeficiency virus 1; experiment: Antiviral activity against HIV 1 in human C8166 cells expressing LTR-luciferase reporter gene assessed as inhibition of viral replication incubated for 72 hrs by multiple-cycle viral replication assay; format: functional, organism-based; details: Human immunodeficiency virus 1, C8166, 72 h
[7] = test system: Human immunodeficiency virus 1; experiment: Antiviral activity against HIV 1 NL4-3; format: functional, organism-based; details: Human immunodeficiency virus 1, NL4-3
[8] = test system: Human immunodeficiency virus 1; experiment: Antiviral activity against HIV 1 NL4-3 infected in […] MT2 cells assessed as reduction in luciferase activity incubated for 4 to 5 days; format: functional, organism-based; details: Human immunodeficiency virus 1, NL4-3, MT2
[9] = test system: Human immunodeficiency virus 1; experiment: Antiviral activity against HIV 1; format: functional, organism-based
[10] = test system: Human immunodeficiency virus 2; experiment: Antiviral activity against HIV 2; format: functional, organism-based
[11] = Metabolic stability in C57Bl/6 mouse liver microsomes assessed as half life by LC-MS/MS analysis; format: ADME, Microsome
[12] = test system: Human immunodeficiency virus 1; experiment: Antiviral activity against HIV 1 infected in human TZM-bl cells by MTT assay; format: functional, organism-based; details: Human immunodeficiency virus 1, TZM-bl
TZM = experiment: Cytotoxicity against human TZM-bl cells assessed as reduction in cell viability incubated for 1 day by CytoTox-Glo stain based assay; format: functional; details: 24 h
[13] = test system: Human immunodeficiency virus 1; experiment: Antiviral activity against HIV 1 infected in human PBMC cells assessed as viral inhibition incubated for 7 days with media replacement for every 3 days by ELISA; format: functional, organism-based; details: Human immunodeficiency virus 1, PBMC
[14] = target: Structural capsid protein (Human immunodeficiency virus 1, UniProt Q76129); experiment: Inhibition of HIV 1 capsid CTD dimerization incubated for 5 hrs by TR-FRET assay
Sequence of Structural capsid protein (Q76129 whole entry): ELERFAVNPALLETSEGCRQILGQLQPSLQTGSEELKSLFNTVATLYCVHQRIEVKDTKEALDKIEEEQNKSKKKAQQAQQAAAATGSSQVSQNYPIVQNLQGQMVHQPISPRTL

[15] = test system: Human immunodeficiency virus 1; experiment: Antiviral activity against HIV 1 infected in HeLa cells transfected with CD4,[…] and LacZ gene assessed as reduction in viral replication measured after 72 hrs by ELISA; format: functional, organism-based; details: Human immunodeficiency virus 1, HeLa
[16] = test system: Human immunodeficiency virus 1; experiment: Antiviral activity against HIV 1 infected in […] MT4 cells; format: functional, organism-based; details: Human immunodeficiency virus 1, MT4
MT4 = experiment: Cytotoxicity against […] MT4 cells; format: functional; details: Homo sapiens
[17] = test system: Human immunodeficiency virus 1; experiment: Antiviral activity against HIV 1 assessed as log 10 reduction in viral load; format: functional

Question: For Cc1[nH]c2ccccc2c1CC(=O)N[C@@H](Cc1ccccc1)C(=O)N(C)c1ccccc1, which EC50 [1] is on record?
Answer: 570 nM

Question: With O=C(O)c1ccc(-c2nc(-c3ccccc3)c(-c3ccccc3)[nH]2)cc1 as the molecule, how does the IC50 [2] read?
Answer: 22500 nM

Question: What does the source list for CCc1cc(-c2ccc(C(F)(F)F)o2)n(-c2ccc3c(c2)nc(-c2cc(C(=O)N4CCCC4)ccc2O)n3Cc2ccc(=O)[nH]c2)n1?
Answer: EC50 [3]: 62 nM; IC50 [4]: 61 nM

Question: For O=C1NC(c2cccnc2)c2c(-c3ccccc3)n[nH]c21 (stereo not given), which EC50 [5] is on record?
Answer: 1800 nM

Question: And the EC50 [6]?
Answer: 1400 nM

Question: Which IC50 [7] does the source give for O=C(O)c1ccc(-c2ccc3c(c2)nc(-c2c[nH]nc2-c2cccc(Cl)c2)n3CCCn2ccnc2)cc1 here?
Answer: 57000 nM

Question: With Cn1nc(NS(C)(=O)=O)c2cccc(-n3c([C@H](Cc4cc(F)cc(F)c4)NC(=O)Cn4nc(C(F)F)c5c4C(F)(F)[C@H]4C[C@@H]54)nc4cc(-c5ncccn5)ccc4c3=O)c21 as the molecule, how does the EC50 [8] read?
Answer: 0.025 nM

Question: What does the source list for CC(C)(C#Cc1ccc(-c2ccc(Cl)c3c(NS(=O)(=O)C4CC4)nn(CC(F)(F)F)c23)c([C@H](Cc2cc(F)cc(F)c2)NC(=O)Cn2nc(C(F)(F)F)c3c2C(F)(F)[C@@H]2C[C@H]32)n1)S(C)(=O)=O?
Answer: EC50 [9]: 0.14 nM; EC50 [10]: 0.14 nM; half-life [11]: 7.2 h

Question: For O=C(O)c1ccc(-c2nc(-c3ccc4oc5ccc(-c6nc(-c7ccc(C(=O)O)cc7)[nH]c6-c6ccccc6)cc5c4c3)c(-c3ccccc3)[nH]2)cc1, which IC50 [2] is on record?
Answer: 33300 nM

Question: For COc1ccc(N(C)C(=O)[C@H](Cc2cc(F)cc(F)c2)NC(=O)c2cccc(-c3cn(-c4ccc([N+](=O)[O-])cc4)nn3)c2)cc1, which EC50 [12] is on record?
Answer: 2130 nM

Question: What about the CC50 (TZM) of the same molecule?
Answer: > 35500 nM

Question: Which IC50 [13] does the source give for CCCCC[C@](C)(NC(=O)[C@H](CC(C)C)NC(=O)[C@H](CC(C)C)NC(=O)[C@H](CC(=O)O)NC(=O)[C@](C)(CCCCC)NC(=O)[C@H](Cc1ccccc1)NC(=O)[C@@H](NC(=O)[C@@H](N)[C@@H](C)CC)[C@@H](C)O)C(=O)N[C@@H](Cc1ccc(O)cc1)C(=O)N[C@@H](Cc1ccc(O)cc1)C(=O)NCC(=O)N1CCC[C@H]1C(=O)O here?
Answer: 4000 nM

Question: With O=c1c2ccccc2[se]n1-c1ccccc1 [EBSELEN] as the molecule, how does the IC50 [14] read?
Answer: 46.7 nM

Question: And the EC50 [15]?
Answer: 4250 nM

Question: Which results are given for CC(C)(C#Cc1ccc(-c2ccc(Cl)c3c(NS(C)(=O)=O)nn(CC(F)(F)F)c23)c([C@H](Cc2cc(F)cc(F)c2)NC(=O)Cn2nc(C(F)(F)F)c3c2C(F)(F)[C@@H]2C[C@H]32)n1)S(C)(=O)=O [LENACAPAVIR]?
Answer: EC50 [16]: 0.1 nM; CC50 (MT4): 27000 nM; log(activity) [17]: 0.5
